Key:
CYP3A4 = tested on: CYP3A4; design: method as in PMID 32129697; conditions: human hepatocytes; cited from earlier work
[1] = design: method as in PMID 29799676; conditions: all dosages 40–500 mg QD or 240–840 mg BID; cited from earlier work
CYP3A = tested on: CYP3A; design: method as in PMID 30427584; conditions: patients with an advanced solid tumor; cited from earlier work
[2] = Rucaparib steady-state trough plasma concentration (Cmin); type: in vivo, human; conditions: rucaparib 600 mg BID from day 5
From the text: This was a 2-part, phase 1, open-label, 2-arm DDI study in patients with advanced solid tumors. In Part 1 of the study, patients were screened for eligibility from day − 28 to − 2 and visited the study site from day − 1 to 23 (Fig. 1). […] To check steady-state plasma concentrations for rucaparib, a blood sample was collected prior to the dosing of rucaparib on days 5, 9, 11, 15, and 19–23.
Other PK parameters, calculated for the probe drugs, included half-life (t1/2), tmax, apparent total clearance of drug after oral administration (CL/F), and apparent volume of distribution during terminal phase (VZ/F). The PK parameter calculated for rucaparib at steady state was trough plasma concentration (Cmin). PK parameters were calculated by noncompartmental analysis using Phoenix WinNonlin, version 8.1 (Certara, Princeton, NJ).

CYP3As = tested on: CYP3As; design: method as in PMID 32129697; conditions: human liver microsomes, reversible inhibition; cited from earlier work
[3] = Safety: TEAEs, Arm A (rucaparib + rosuvastatin); type: in vivo, human
Protocol: (§1) Safety was assessed separately during the 3 treatment periods: before rucaparib dosing (day 1 to 5), rucaparib dosing alone (day 6 to 18), and rucaparib with and after probe drug (day 19 to 23). Safety and tolerability assessments were made based on adverse events (AEs), clinical laboratory results, vital signs, 12-lead electrocardiogram (ECG) measurements, body weight, physical examination, concomitant medication/procedures, and ECOG performance status. AEs were classified according to the Medical Dictionary for Regulatory Activities (MedDRA) classification system version 22.1 [17] and graded according to the Common Terminology Criteria for Adverse Events (CTCAE) version 4.03 [18].

[4] = tested on: breast cancer resistance protein (BCRP); design: method as in PMID 32129697; conditions: read-out: 50% inhibitory concentration (IC50) for BCRP; transfected cells; cited from earlier work
[5] = Safety: TEAEs, Arm B (rucaparib + oral contraceptives)
Protocol: as §1

CNCc1ccc(-c2[nH]c3cc(F)cc4c3c2CCNC4=O)cc1 [rucaparib]
CYP3A4 mRNA expression (CYP3A4): down-regulated | CYP3A activities (CYP3A4): reduced | steady state of plasma rucaparib PK achieved by day [1]: ≤ 8 days | inhibition of CYP3A at steady state (CYP3A): weakly inhibited | days of continuous rucaparib dosing to steady state [2]: 4 days | IC50 (CYP3As): 17.2 to 22.9 µM | Abdominal distension ([3]; maximum severity 1): 1 (5.9) n (%) | Abdominal pain ([3]; maximum severity 1): 1 (5.9) n (%) | Blood creatinine increased ([3]; maximum severity 1): 1 (5.9) n (%) | Diarrhea ([3]; maximum severity 1): 2 (11.8) n (%) | Dyspepsia ([3]; maximum severity 1): 1 (5.9) n (%) | Electrocardiogram QT prolonged ([3]; maximum severity 1): 1 (5.9) n (%) | Gastrointestinal disorders ([3]; maximum severity 1): 3 (17.6) n (%) | General disorders and administration site conditions ([3]; maximum severity 1): 1 (5.9) n (%) | Infections and infestations ([3]; maximum severity 1): 1 (5.9) n (%) | Investigations ([3]; maximum severity 1): 2 (11.8) n (%) | Nasopharyngitis ([3]; maximum severity 1): 1 (5.9) n (%) | Peripheral swelling ([3]; maximum severity 1): 1 (5.9) n (%) | Reproductive system and breast disorders ([3]; maximum severity 1): 0 n (%) | Total patients with events ([3]; maximum severity 1): 5 (29.4) n (%) | Vaginal hemorrhage ([3]; maximum severity 1): 0 n (%) | Vomiting ([3]; maximum severity 1): 0 n (%) | Abdominal pain ([3]; maximum severity 2): 1 (5.9) n (%) | Abdominal pain upper ([3]; maximum severity 2): 1 (5.9) n (%) | Body temperature increased ([3]; maximum severity 2): 0 n (%) | Cardiac disorders ([3]; maximum severity 2): 1 (5.9) n (%) | Diarrhea ([3]; maximum severity 2): 1 (5.9) n (%) | Dyspepsia ([3]; maximum severity 2): 0 n (%) | Electrocardiogram QT prolonged ([3]; maximum severity 2): 0 n (%) | Gastrointestinal disorders ([3]; maximum severity 2): 3 (17.6) n (%) | General disorders and administration site conditions ([3]; maximum severity 2): 2 (11.8) n (%) | Infections and infestations ([3]; maximum severity 2): 1 (5.9) n (%) | Investigations ([3]; maximum severity 2): 0 n (%) | Noncardiac chest pain ([3]; maximum severity 2): 1 (5.9) n (%) | Peripheral swelling ([3]; maximum severity 2): 1 (5.9) n (%) | Sinus tachycardia ([3]; maximum severity 2): 1 (5.9) n (%) | Total patients with events ([3]; maximum severity 2): 5 (29.4) n (%) | Urinary tract infection ([3]; maximum severity 2): 1 (5.9) n (%) | Vomiting ([3]; maximum severity 2): 1 (5.9) n (%) | Deep vein thrombosis ([3]; maximum severity 3): 1 (5.9) n (%) | Total patients with events ([3]; maximum severity 3): 1 (5.9) n (%) | Vascular disorders ([3]; maximum severity 3): 1 (5.9) n (%) | Pulmonary embolism ([3]; maximum severity 4): 1 (5.9) n (%) | Respiratory, thoracic, and mediastinal disorders ([3]; maximum severity 4): 1 (5.9) n (%) | Total patients with events ([3]; maximum severity 4): 1 (5.9) n (%) | TEAEs considered related to rucaparib by the investigator ([3]; rucaparib alone day 5 to 19, of 10 patients with TEAE): 3 | IC50 [4]: 55 µM | Pharyngitis bacterial ([5]; Arm B, maximum severity 1): 1 (5.6) n (%) | patients who experienced at least 1 TEAE ([5]; female, human, in vivo): 50.0% | patients with TEAEs considered related to rucaparib ([5]; female, human, in vivo): 7 patients | Abdominal discomfort ([5]; human, in vivo): 1 (5.6) n (%) | Abdominal pain ([5]; human, in vivo): 1 (5.6) n (%) | Accident ([5]; human, in vivo): 1 (5.6) n (%) | Acute kidney injury ([5]; human, in vivo): 1 (5.6) n (%) | Apathy ([5]; human, in vivo): 1 (5.6) n (%) | Arthropod bite ([5]; human, in vivo): 1 (5.6) n (%) | Ascites ([5]; human, in vivo): 1 (5.6) n (%) | Aspartate aminotransferase increased ([5]; human, in vivo): 1 (5.6) n (%) | Cerebrovascular accident ([5]; human, in vivo): 0 n (%) | Diarrhea ([5]; human, in vivo): 0 n (%) | Dysgeusia ([5]; human, in vivo): 2 (11.1) n (%) | Erythema ([5]; human, in vivo): 0 n (%) | General disorders and administration site conditions ([5]; human, in vivo): 1 (5.6) n (%) | Headache ([5]; human, in vivo): 1 (5.6) n (%) | Infections and infestations ([5]; human, in vivo): 1 (5.6) n (%) | Injury, poisoning, and procedural complications ([5]; human, in vivo): 1 (5.6) n (%) | Musculoskeletal and connective tissue disorders ([5]; human, in vivo): 1 (5.6) n (%) | Musculoskeletal pain ([5]; human, in vivo): 1 (5.6) n (%) | Nausea ([5]; human, in vivo): 1 (5.6) n (%) | Onycholysis ([5]; human, in vivo): 1 (5.6) n (%) | Peripheral swelling ([5]; human, in vivo): 1 (5.6) n (%) | Psychiatric disorders ([5]; human, in vivo): 1 (5.6) n (%) | Renal and urinary disorders ([5]; human, in vivo): 1 (5.6) n (%) | Skin and subcutaneous tissue disorders ([5]; human, in vivo): 1 (5.6) n (%) | Skin hemorrhage ([5]; human, in vivo): 1 (5.6) n (%) | Somnolence ([5]; human, in vivo): 1 (5.6) n (%) | Taste disorder ([5]; human, in vivo): 1 (5.6) n (%) | Thrombocytopenia ([5]; human, in vivo): 0 n (%)
